Experimental findings from patent US7452887B2, “Quinoline- and isoquinoline-based compounds exhibiting ATP-utilizing enzyme inhibitory activity, and compositions, and uses thereof” (Amphora Discovery Corporation, priority 2004, dated 2008) are described below.

One experiment addresses T1, PRAK (Homo sapiens, UniProt Q8IW41).
T1 sequence (Q8IW41 1-473): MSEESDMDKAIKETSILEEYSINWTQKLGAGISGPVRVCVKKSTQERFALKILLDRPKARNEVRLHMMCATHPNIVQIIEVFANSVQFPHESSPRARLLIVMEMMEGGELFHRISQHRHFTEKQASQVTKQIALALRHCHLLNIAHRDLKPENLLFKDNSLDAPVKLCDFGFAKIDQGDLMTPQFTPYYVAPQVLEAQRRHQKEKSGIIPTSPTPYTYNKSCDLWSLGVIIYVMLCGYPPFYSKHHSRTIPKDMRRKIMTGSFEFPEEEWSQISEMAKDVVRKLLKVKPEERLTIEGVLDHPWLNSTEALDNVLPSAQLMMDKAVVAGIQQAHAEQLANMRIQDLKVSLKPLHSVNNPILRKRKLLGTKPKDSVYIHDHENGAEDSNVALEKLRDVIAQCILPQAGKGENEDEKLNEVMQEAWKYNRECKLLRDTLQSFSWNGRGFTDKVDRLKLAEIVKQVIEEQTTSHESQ
As to the kind of experiment: HTS ATP-utilizing enzyme assay, off-chip mobility-shift (Caliper HTS 250). In kind it is biochemical. Conditions: test compound 10 μM, kinase listed = active (greater than six-sigma from the mean activity of inactive compounds). Put shortly:
(§1)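 Compounds were tested once at 10 μM against kinase with peptide substrate. After 2.5 hrs at 20° C. to 22° C., reactions were terminated with EDTA, and conversion was read as substrate/product ratio by mobility shift.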

The target of another experiment is T2, DYRK2 (Homo sapiens, UniProt Q92630).
T2 sequence (Q92630 1-601): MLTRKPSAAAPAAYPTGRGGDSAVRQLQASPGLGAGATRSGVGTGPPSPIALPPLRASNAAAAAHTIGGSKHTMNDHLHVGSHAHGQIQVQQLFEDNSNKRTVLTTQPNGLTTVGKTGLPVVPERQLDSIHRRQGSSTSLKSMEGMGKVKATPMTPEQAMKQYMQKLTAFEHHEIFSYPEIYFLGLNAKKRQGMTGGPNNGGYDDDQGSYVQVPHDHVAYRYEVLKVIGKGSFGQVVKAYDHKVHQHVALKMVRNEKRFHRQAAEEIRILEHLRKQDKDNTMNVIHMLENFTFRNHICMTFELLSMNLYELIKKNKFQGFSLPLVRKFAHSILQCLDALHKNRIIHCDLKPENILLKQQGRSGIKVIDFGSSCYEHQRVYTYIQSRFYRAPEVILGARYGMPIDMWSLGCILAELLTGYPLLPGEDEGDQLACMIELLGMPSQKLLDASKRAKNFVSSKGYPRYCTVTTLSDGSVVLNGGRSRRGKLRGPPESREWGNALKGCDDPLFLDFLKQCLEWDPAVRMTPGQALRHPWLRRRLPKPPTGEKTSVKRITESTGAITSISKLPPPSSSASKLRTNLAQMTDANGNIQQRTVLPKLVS
The description is as above. To be noted: test compound 10 μM, kinase listed = active (greater than six-sigma from the mean activity of inactive compounds). In kind it is biochemical. Put shortly: as §1

On to `CN1CCN(c2ccc(Nc3ccnc4ccc(-c5ccc(O)cc5)cc34)cc2)CC1` [4-(4-(4-(4-methylpiperazin-1-yl)phenylamino)quinolin-6-yl)phenol], for which the Activity result is given as “PRAK” on PRAK and “DYRK2” on DYRK2.

In the case of `CN1CCN(c2ccc(Nc3ccnc4ccc(-c5ccc(F)cc5)cc34)cc2)CC1` [6-(4-fluorophenyl)-N-(4-(4-methylpiperazin-1-yl)phenyl)quinolin-4-amine], the Activity entry is recorded as “PRAK” at PRAK and “DYRK2” on DYRK2.

Consider `COc1ccc(-c2ccc3nccc(Nc4ccc(N5CCNCC5)cc4)c3c2)cc1` [6-(4-methoxyphenyl)-N-(4-(piperazin-1-yl)phenyl)quinolin-4-amine], for which the Activity entry is recorded as “PRAK” on PRAK and “DYRK2” at DYRK2.

Turning to `COc1ccc(-c2ccc3nccc(N(C)c4ccc(N5CCN(C)CC5)cc4)c3c2)cc1` [6-(4-methoxyphenyl)-N-methyl-N-(4-(4-methylpiperazin-1-yl)phenyl)quinolin-4-amine], the Activity result on DYRK2 is given as “DYRK2”.

As to `c1ccc(-c2ccc3nccc(Nc4ccc(N5CCNCC5)cc4)c3c2)cc1` [6-phenyl-N-(4-(piperazin-1-yl)phenyl)quinolin-4-amine], the Activity entry on PRAK is “PRAK”.

For the molecule `CN1CCN(c2ccc(Nc3ccnc4ccc(-c5cccc6ccccc56)cc34)cc2)CC1` [N-(4-(4-methylpiperazin-1-yl)phenyl)-6-(naphthalen-1-yl)quinolin-4-amine], on PRAK, the Activity result is “PRAK”.

With `CN1CCN(c2ccc(Nc3ccnc4ccc(-c5ccc6ccccc6c5)cc34)cc2)CC1` [N-(4-(4-methylpiperazin-1-yl)phenyl)-6-(naphthalen-2-yl)quinolin-4-amine], the Activity entry is on record as “PRAK” on PRAK and “DYRK2” at DYRK2.

As for `CN1CCN(c2ccc(Nc3ccnc4ccc(-c5ccncc5)cc34)cc2)CC1` [N-(4-(4-methylpiperazin-1-yl)phenyl)-6-(pyridin-4-yl)quinolin-4-amine], the Activity result at PRAK is “PRAK”; at DYRK2 it was “DYRK2”.

With `Cc1ccccc1-c1ccc2nccc(Nc3ccc(N4CCN(C)CC4)cc3)c2c1` [N-(4-(4-methylpiperazin-1-yl)phenyl)-6-o-tolylquinolin-4-amine], the values for the Activity entry on PRAK and on DYRK2 were “PRAK” and “DYRK2”, respectively.
